Patent US4668705A, “Sebosuppressive preparations containing alkoxyaryl alkanols” (Henkel Kommanditgesellschaft auf Aktien, priority 1983, dated 1987)

How the values were obtained:
seborrhea of the scalp = settings: prior art, cited from earlier work; for antiseborrheic effect of known additives: additives to cosmetic preparations
[1] = tested on: brown skin surface lipid of the rats; assay: Antiseborrheic effect in animal test: browning of the shaved back of rats (skin surface lipid), visual assessment under double blind conditions; assay type: in vivo, male Wistar rats; design: key to Evaluation method 2 (points difference between righthand and lefthand side) / Evaluation method 3 (difference in intensity of brown shades vs untreated control animals): ++: very large (≥99.9% probability); +: significant (≥95% probability); 0: minimal (95% probability); settings: for reduction of sebum (threshold statement in text): at the concentration tested in the Table
Source text: The antiseborrheic effect was closely studied using the animal tests described in the following: The test animals were male Wistar rats having a body weight of 220 to 230 g at the beginning of the tests. The degree of browning on the shaved back of the rats was visually assessed. Browning is produced by the brown skin surface lipid of the rats. This test is based on the observation that young male and female rats washed with surfactant solution or with a lipid solvent and also male rats systematically treated with oestrogen only have the normal light, pink-colored skin after shaving. At the same time, only comparatively very small quantities of lipids can be extracted from the shaved hairs. In order to assess effectiveness, the test substances in solution in alcohol were each brushed onto half the back of 6 rats. The other half was only treated with the solvent minus active substances. Over the test period of 14 days, the test substances were applied once daily for a total of 9 days. A group of 6 rats which remained completely untreated was used for further control. At the end of the test, the animals were shaved on their back and sides and were visually assessed independently by an examination panel of 6 people under double blind conditions. The first criterion evaluated was whether the majority of examiners correctly recognized the treated side, differentiation being carried out as follows: The second criterion evaluated was the difference between the righthand side and the lefthand side, each examiner having to award 1 point per animal on the following basis: darker side--1 point lighter side--0 point and both sides the same--0.5 point Significant differences between the untreated and treated sides in the second method of evaluation indicate the local effectiveness of a substance. The third criterion evaluated was the difference in intensity between the shades of brown using the following scale: 3 points--dark brown 2 points--medium brown 1 point--light brown 0 points--no browning In the third method of evaluation, total point differences are compared between the untreated control animals and the treated and untreated sides of the test animals, significant differences between the control animals and the treated side of the test animals again indicating the effectiveness of a substance. There is generally also a distinct difference between the untreated and treated sides of the same test animals. However, this difference is not always as clear as that between the control animals and the treated sides, for which there may be various reasons, such as mechanical transfer of substance from one side to the other or solvent influence. The following scheme was used for differentiating the effects according to evaluation methods 2 and 3: The sebum reduction is calculated from the points difference by working out the quotient between the points difference ΔP and the number of points for the control group Pk, and expressing the value obtained in percent. Sebum reduction=(ΔP/Pk ·100 [%] […]

[2] = Conc. 0.5%, topical, once daily, 9 applications in 14 days
[3] = Rattus norvegicus, 336 h, Conc. 0.5%, topical, once daily, 9 applications in 14 days, ΔP/Pk × 100, read-out: Sebum reduction
[4] = Conc. 1.0%, topical, once daily, 9 applications in 14 days
[5] = Rattus norvegicus, 336 h, Conc. 1.0%, topical, once daily, 9 applications in 14 days, ΔP/Pk × 100, read-out: Sebum reduction
[6] = Conc. 0.1%, topical, once daily, 9 applications in 14 days
[7] = Conc. 0.2%, topical, once daily, 9 applications in 14 days
[8] = Rattus norvegicus, 336 h, Conc. 0.2%, topical, once daily, 9 applications in 14 days, ΔP/Pk × 100, read-out: Sebum reduction

3,7,11-trimethyl-2,6,10-dodecatrien-1-ol ethyl ether and/or acetate
antiseborrheic effect of known additives (seborrhea of the scalp): only a very weak antiseborrheic effect

CCCCCCCCCCOc1ccccc1CO [G, 2-decyloxybenzyl alcohol]
Evaluation method 1 (percentage of examiners noticing an effect, treated side recognized) [1, 2]: ++ (100%) | Evaluation method 2 (points difference between righthand and lefthand side) [1, 2]: ++ (very large (≥99.9% probability)) | Evaluation method 3 (difference in intensity of brown shades vs untreated control animals) [1, 2]: ++ (very large (≥99.9% probability)) | inhibition in vivo at 0.5 % [1, 3]: 20%

S1SSSSSSS1 [sulfur]
antiseborrheic effect of known additives (seborrhea of the scalp): without giving really satisfactory results in regard to efficacy | side effects of known additives (seborrhea of the scalp; after prolonged use): frequently produce side effects after prolonged use

CCCCCCCCCCCCOc1cccc(CO)c1 [H, 3-dodecyloxybenzyl alcohol]
Evaluation method 1 (percentage of examiners noticing an effect, treated side recognized) [1, 2]: ++ (100%) | Evaluation method 2 (points difference between righthand and lefthand side) [1, 2]: ++ (very large (≥99.9% probability)) | Evaluation method 3 (difference in intensity of brown shades vs untreated control animals) [1, 2]: ++ (very large (≥99.9% probability)) | inhibition in vivo at 0.5 % [1, 3]: 69% | reduction of sebum (threshold statement in text) [1]: at least 50%

OCc1ccccc1 [Benzyl alcohol, reference compound]
Evaluation method 1 (percentage of examiners noticing an effect, treated side recognized) [1, 4]: 0 (≤50%) | Evaluation method 2 (points difference between righthand and lefthand side) [1, 4]: 0 | Evaluation method 3 (difference in intensity of brown shades vs untreated control animals) [1, 4]: 0 | inhibition in vivo at 1 % [1, 5]: 0%

CCCCCCCCCCOc1ccc(CCO)cc1 [C, 2-(4-decyloxyphenyl)-ethanol]
Evaluation method 1 (percentage of examiners noticing an effect, treated side recognized) [1, 4]: ++ (100%) | Evaluation method 2 (points difference between righthand and lefthand side) [1, 4]: ++ (very large (≥99.9% probability)) | Evaluation method 3 (difference in intensity of brown shades vs untreated control animals) [1, 4]: ++ (very large (≥99.9% probability)) | inhibition in vivo at 1 % [1, 5]: 56% | reduction of sebum (threshold statement in text) [1]: at least 50%

CCCCCCCCCCCCOc1ccc(CO)cc1 [D, 4-dodecyloxybenzyl alcohol]
Evaluation method 1 (percentage of examiners noticing an effect, treated side recognized) [1, 6]: ++ (100%) | Evaluation method 2 (points difference between righthand and lefthand side) [1, 6]: ++ (very large (≥99.9% probability)) | Evaluation method 3 (difference in intensity of brown shades vs untreated control animals) [1, 6]: ++ (very large (≥99.9% probability)) | inhibition in vivo at 0.1 % ([1]; Rattus norvegicus, 336 h, Conc. 0.1%, topical, once daily, 9 applications in 14 days, ΔP/Pk × 100, read-out: Sebum reduction): 88%

CCCCCCCCCCCCCCOc1ccc(CO)cc1 [A, 4-tetradecyloxybenzyl alcohol]
Evaluation method 1 (percentage of examiners noticing an effect, treated side recognized) [1, 2]: ++ (100%) | Evaluation method 2 (points difference between righthand and lefthand side) [1, 2]: ++ (very large (≥99.9% probability)) | Evaluation method 3 (difference in intensity of brown shades vs untreated control animals) [1, 2]: ++ (very large (≥99.9% probability)) | inhibition in vivo at 0.5 % [1, 3]: 97%

CCCCCCCCCCOc1ccc(CO)cc1 [B, 4-decyloxybenzyl alcohol]
Evaluation method 1 (percentage of examiners noticing an effect, treated side recognized) [1, 7]: ++ (100%) | Evaluation method 2 (points difference between righthand and lefthand side) [1, 7]: ++ (very large (≥99.9% probability)) | Evaluation method 3 (difference in intensity of brown shades vs untreated control animals) [1, 7]: ++ (very large (≥99.9% probability)) | inhibition in vivo at 0.2 % [1, 8]: 95%

CCCCCCCCCCOc1cccc(CO)c1 [K, 3-decyloxybenzyl alcohol]
Evaluation method 1 (percentage of examiners noticing an effect, treated side recognized) [1, 2]: ++ (100%) | Evaluation method 2 (points difference between righthand and lefthand side) [1, 2]: ++ (very large (≥99.9% probability)) | Evaluation method 3 (difference in intensity of brown shades vs untreated control animals) [1, 2]: ++ (very large (≥99.9% probability)) | inhibition in vivo at 0.5 % [1, 3]: 53% | reduction of sebum (threshold statement in text) [1]: at least 50%

mercury
antiseborrheic effect of known additives (seborrhea of the scalp): without giving really satisfactory results in regard to efficacy

CCCCCCOc1ccc(CO)cc1 [E, 4-hexyloxybenzyl alcohol]
Evaluation method 1 (percentage of examiners noticing an effect, treated side recognized) [1, 7]: ++ (100%) | Evaluation method 2 (points difference between righthand and lefthand side) [1, 7]: ++ (very large (≥99.9% probability)) | Evaluation method 3 (difference in intensity of brown shades vs untreated control animals) [1, 7]: ++ (very large (≥99.9% probability)) | inhibition in vivo at 0.2 % [1, 8]: 92%

CCCCCCCCCCCCCCOc1cccc(CO)c1 [I, 3-tetradecyloxybenzyl alcohol]
Evaluation method 1 (percentage of examiners noticing an effect, treated side recognized) [1, 2]: ++ (100%) | Evaluation method 2 (points difference between righthand and lefthand side) [1, 2]: ++ (very large (≥99.9% probability)) | Evaluation method 3 (difference in intensity of brown shades vs untreated control animals) [1, 2]: ++ (very large (≥99.9% probability)) | inhibition in vivo at 0.5 % [1, 3]: 22%

CCCCCCCCOc1ccc(CO)cc1 [F, 4-octyloxybenzyl alcohol]
Evaluation method 1 (percentage of examiners noticing an effect, treated side recognized) [1, 7]: ++ (100%) | Evaluation method 2 (points difference between righthand and lefthand side) [1, 7]: ++ (very large (≥99.9% probability)) | Evaluation method 3 (difference in intensity of brown shades vs untreated control animals) [1, 7]: ++ (very large (≥99.9% probability)) | inhibition in vivo at 0.2 % [1, 8]: 95%
